Measured values: US4255183A, “Substituted phenyl urea and herbicides for use in paddy field” (Hokko Chemical Industry Co., Ltd., priority 1977, dated 1981)
Where two headings read alike, the source gives them in different places.

Key:
paddy rice [1] = test: Test Example 4: field test in submerged directly seeded paddy field, paddy rice; type: in vivo, paddy rice (Asahi species); conditions: Oryza sativa, 504 h; 300 g/10 are, emulsion, 2- to 3-leaf stage, 21 days after application
Procedure: (§1) In a Wagner pot of 1/500 are, paddy field soil (alluvial soil) was placed and 50 seeds of Echinochloa crus-galli var. oryzicola and 30 seeds of paddy rice were seeded in the surface layer of said soil and the submerging depth was kept at about 1 cm. When Echinochloa crus-galli var. oryzicola reached at the one leaf stage and 5-leaf stage, the emulsion of a predetermined concentration, prepared according to Example 4 was added dropwise. After 30 days from the treatment with the chemical, dry weights of Echinochloa crus-galli var. oryzicola and paddy rice were measured and the inhibition rate was calculated with reference to untreated area. [formula]
(§2) In a 10 m^2 paddy field, 30 g of Echinochloa crus-galli var. oryzicola seeds were seeded at the time of puddling and the depth of submerging was kept at 3-5 cm. 3 Days after the puddling, 50 g of paddy rice at the emergence stage (Asahi species) were seeded. When Echinochloa crus-galli var. oryzicola and paddy rice reached a 2- to 3-leaf stage, a predetermined dose of the emulsion prepared according to Example 4 was applied uniformly by means of a manual spraying machine. Test results were examined 21 days after the application of the chemicals in the similar manner as in Test Example 1.
(§3) The comparative chemical 1 used was that commercially available and the comparative chemical 2 used was prepared according to Example 4.

Dopatrium junceum = test: Test Example 5: Wagner pot test, herbicidal effect on Dopatrium junceum; type: in vivo
Procedure: (§4) In a 1/7500 are Wagner pot, sieved paddy field soil (alluvial soil) was charged. Thereafter, in the center portion of the pot, 2 roots of paddy rice (Asahi species) at the 2- to 3-leaf stage were transplanted and 20 seeds of Bulrush per pot were seeded in the surface of the above soil. The pot was submerged at the depth of about 2 cm. The other Dopatrium junceum and umbrella plant were generated naturally. After seeding, when each of the weeds reached the same leaf age as defined in Table 5 given herein, a predetermined concentration of the emulsion prepared according to Example 4 was applied dropwise on the surface of the pot. The test was carried out by repeating the same test three times per area and the results were determined 20 days after the application of the chemicals with regard to the herbicidal effect and chemical injury on paddy rice on the basis of the evaluation index as shown below.
(§5) As the comparative chemicals Molinate, Benthiocarb and DCMU, those commercially available were used.
(§6) In the above table, the inhibition rate was calculated according to the method as described in Test Example 1.

Bulrush = test: Test Example 5: Wagner pot test, herbicidal effect on Bulrush; type: in vivo
Procedure: as §4, §5, §6

paddy rice [2] = test: whole plant or invertebrate; type: in vivo, paddy rice (Asahi species); conditions: for inhibition at 1500 g/ha / inhibition at 3000 g/ha / inhibition at 9000 g/ha: Oryza sativa, 720 h
Procedure: as §1
(§7) In a concrete pot of 1/400 are (50 cm×50 cm), paddy field soil (alluvial soil) was placed and 200 seeds of Echinochloa crus-galli var. oryzicola were seeded in 10 surface layer of said soil and the soil was submerged at about 3 cm depth. Before emergence of Echinochloa crus-galli var. oryzicola, paddy rice at 2.5-leaf stage (Asahi species) was transplanted at the rate of 8 stubs per pot, planting 3 seedlings per stub. At the one-leaf stage (3.5 leaves stage of paddy rice) and 5 leaves stage (7 leaves stage of paddy rice) of Echinochloa crus-galli var. oryzicola, the granule prepared according to Example 1 was applied. […] 30 Days after the treatment with the chemical, examination was made in the similar manner as Test Example 1 to obtain results as shown in Table 2.
(§8) In the table, as the comparative chemicals CPN, Benthiocarb, Molinate and Simetryne, those commercially available were used and the comparative chemicals A and B (as mentioned before) used were prepared according to the process for preparing the compound of this invention.

[3] = tested on: Echinochloa crus-galli var. oryzicola; test: Test Example 4: field test in submerged directly seeded paddy field, Echinochloa crus-galli var. oryzicola; type: in vivo
Procedure: as §1, §2, §3

[4] = tested on: Echinochloa crus-galli var. oryzicola; test: Test Example 2: concrete pot test on killing effect, Echinochloa crus-galli var. oryzicola; type: in vivo; conditions: for inhibition at 1500 g/ha / inhibition at 3000 g/ha / inhibition at 9000 g/ha: Echinochloa crus-galli, 720 h
Procedure: as §1, §7, §8

paddy rice [5] = test: Test Example 5: Wagner pot test, chemical injury on paddy rice; type: in vivo, paddy rice (Asahi species); note: key: 5: Completely killed; 4: Considerably injured; 3: Moderately injured; 2: A little injured; 1: Slightly injured; 0: Not injured
Procedure: as §4, §5

Umbrella plant = test: Test Example 5: Wagner pot test, herbicidal effect on umbrella plant; type: in vivo; conditions: 20 days after application
Procedure: as §4, §5, §6

[6] = tested on: Echinochloa crus-galli var. oryzicola; test: Test Example 1: pot test on selectivity, inhibition of Echinochloa crus-galli var. oryzicola; type: in vivo
Procedure: as §1
(§9) The comparative chemicals used, i.e. DCMU and Linuron, were those commercially available, and the comparative chemicals A and B used were prepared according to the process for formulating the compound of this invention.

paddy rice [7] = test: Test Example 1: pot test on selectivity, inhibition of paddy rice; type: in vivo
Procedure: as §1, with “When Echinochloa crus-galli var. oryzicola reached at the one leaf stage and 5-leaf stage, the emulsion of a predetermined concentration, prepared according to Example 4 was added dropwise.” left out
as §9

[8] = tested on: Echinochloa crus-galli var. oryzicola; test: Test Example 3: field test in transplanted paddy field, Echinochloa crus-galli var. oryzicola; type: in vivo; conditions: farm test in transplanted paddy field
Procedure: as §1
In a 10 m^2 paddy field, young seedlings of paddy rice (Asahi species) at the 2,5-leaf stage were transplanted 30 days after the puddling the submerging at the depth of 3-5 cm. 25 Days after the transplantation, when Echinochloa crus-galli var. oryzicola reached 4-leaf stage, a predetermined dose of the granule prepared according to Example 1 was applied. Test results were examined 60 days after the transplantation of paddy rice in the similar manner as in Test Example 1.
Comparative chemicals used were all those commercially available and in the case of the comparative chemical 2, CNP was applied 3 days after the transplantation of paddy rice and after 25 days a mixture of Benthiocarb and Simetryne was applied.

[9] = 300 g/10a, leaf age 3, 20 days after application
[10] = 600 g/10a, leaf age 3, 20 days after application
[11] = read-out: Inhibition (%) by treatment at 1-leaf stage of E. crus-galli var. oryzicola, paddy rice
[12] = read-out: Inhibition (%) by treatment at 5-leaf stage of E. crus-galli var. oryzicola, paddy rice
[13] = read-out: Inhibition (%) by treatment at 1-leaf stage of E. crus-galli var. oryzicola, E. crus-galli var. oryzicola
[14] = read-out: Inhibition (%) by treatment at 5-leaf stage of E. crus-galli var. oryzicola, E. crus-galli var. oryzicola
[15] = versus 3-(4-(3-chloro-2-butenyloxy)phenyl)-1,1-dimethyl urea

CCSC(=O)N1CCCCCC1 [Molinate, s-ethyl hexahydro-1H-azepine-1-carbothioate]
inhibition at 3000 g/ha (paddy rice [1]): 12% | Weed kill degree, Dopatrium junceum (Dopatrium junceum; 300 g/10a, leaf age 2, 20 days after application): 2 (60-79) | Weed kill degree, Dopatrium junceum (Dopatrium junceum; [9]): 4 (90-99) | Weed kill degree, Dopatrium junceum (Dopatrium junceum; 600 g/10a, leaf age 2, 20 days after application): 5 (100) | Weed kill degree, Dopatrium junceum (Dopatrium junceum; [10]): 5 (100) | Weed kill degree, Bulrush (Bulrush; [9]): 0 (less than 39) | Weed kill degree, Bulrush (Bulrush; 300 g/10a, leaf age 3-5, 20 days after application): 1 (40-59) | Weed kill degree, Bulrush (Bulrush; [10]): 5 (100) | Weed kill degree, Bulrush (Bulrush; 600 g/10a, leaf age 3-5, 20 days after application): 2 (60-79) | inhibition at 1500 g/ha (paddy rice [2]; [11]): 0% | inhibition at 3000 g/ha (paddy rice [2]; [11]): 8% | inhibition at 9000 g/ha (paddy rice [2]; [11]): 36% | inhibition at 1500 g/ha (paddy rice [2]; [12]): 0% | inhibition at 3000 g/ha (paddy rice [2]; [12]): 0% | inhibition at 9000 g/ha (paddy rice [2]; [12]): 8% | inhibition at 3000 g/ha ([3]; Echinochloa crus-galli, 504 h, 300 g/10 are, emulsion, 2- to 3-leaf stage, 21 days after application, read-out: Inhibition (%) of E. crus-galli var. oryzicola): 83% | inhibition at 1500 g/ha [4, 13]: 86% | inhibition at 3000 g/ha [4, 13]: 100% | inhibition at 9000 g/ha [4, 13]: 100% | inhibition at 1500 g/ha [4, 14]: 0% | inhibition at 3000 g/ha [4, 14]: 13% | inhibition at 9000 g/ha [4, 14]: 31% | Chemical injury on paddy rice (paddy rice [5]; 300 g/10a, 3 tillers, 20 days after application): 0 | Chemical injury on paddy rice (paddy rice [5]; [9]): 0 | Chemical injury on paddy rice (paddy rice [5]; 600 g/10a, 3 tillers, 20 days after application): 0 | Chemical injury on paddy rice (paddy rice [5]; [10]): 0 | Weed kill degree, Umbrella plant (Umbrella plant; 300 g/10a, leaf age 2 (first group of columns)): 1 (40-59) | Weed kill degree, Umbrella plant (Umbrella plant; 300 g/10a, leaf age 2 (second group of columns)): 4 (90-99) | Weed kill degree, Umbrella plant (Umbrella plant; 600 g/10a, leaf age 2 (first group of columns)): 1 (40-59) | Weed kill degree, Umbrella plant (Umbrella plant; 600 g/10a, leaf age 2 (second group of columns)): 5 (100)

CC=CCOc1ccc(NC(=O)N(C)C)cc1 [the compound of the invention, 3-(4-crotyloxyphenyl)-1,1-dimethyl urea]
Chemical injury on paddy rice (paddy rice [2]; in vivo): no chemical injury on paddy rice | power for killing Echinochloa crus-galli var. oryzicola at the 5-leaf stage ([6]; as compared with CBPDU): more increased | herbicidal activity against Echinochloa crus-galli var. oryzicola at 5-leaf stage [6, 15]: superior | herbicidal activity against Echinochloa crus-galli var. oryzicola ([6]; versus a compound disclosed in Japanese Pat. No. 2329/1973): superior herbicidal activity | Chemical injury on paddy rice (paddy rice [7]; as compared with CBPDU): more decreased | chemical injury (paddy rice [7]; [15]): superior | selectivity (paddy rice [7]; [15]): selectivity over a wide range | killing of Echinochloa crus-galli var. oryzicola not killed by conventional systematic treatment [8]: completely killed | killing of Echinochloa crus-galli var. oryzicola in submerged direct seeding cultivation ([3]; submerged direct seeding): selectively kill | killing of Echinochloa crus-galli var. oryzicola at 5-leaf stage ([4]; 5-leaf stage): completely kill | herbicidal activity against Echinochloa crus-galli var. oryzicola at 1-leaf stage ([4]; compared with the known herbicides): similarly high herbicidal activity
